From patent publication US12509453B2, “BRM/BRG1 inhibitors and uses thereof” (Foghorn Therapeutics Inc., priority 2019, dated 2025) come the findings set out here.

The target in one assay is T1, BRM (Homo sapiens, UniProt P51531).
T1 construct: made in house; host or cells: High Five insect cells
Description: ATPase catalytic activity assay (ADP-Glo), BRM. Type of assay: biochemical. To be noted: 30 nM BRM, 400 μM ATP; for IC50: 20 nM salmon sperm DNA, read-out: BRM IP50 (μM)*. As to the method:
(§1) The ATPase catalytic activity of BRM or BRG-1 was measured by the in vitro biochemical assay using ADP-Glo™ (Promega, V9102). The ADP-Glo™ kinase assay is performed in two steps once the reaction is complete. The first step is to deplete any unconsumed ATP in the reaction. The second step is to convert the reaction product ADP to ATP, which will be utilized by the luciferase to generate luminesce and be detected by a luminescence reader, such as Envision.
(§2) The assay reaction mixture (10 μL) contains 30 nM of BRM or BRG-1, 20 nM salmon sperm DNA (from Invitrogen, UltraPure™ Salmon Sperm DNA Solution, cat #15632011), and 400 μM of ATP in the ATPase assay buffer, which comprises of 20 mM Tris, pH 8, 20 mM MgCl2, 50 mM NaCl, 0.1% Tween-20, and 1 mM fresh DTT (Pierce™ DTT (Dithiothreitol), cat #20290). The reaction is initiated by the addition of the 2.5 μL ATPase solution to 2.5 μL ATP/DNA solution on low volume white Proxiplate-384 plus plate (PerkinElmer,cat #6008280) and incubates at room temperature for 1 hour. Then following addition of 5 μL of ADP-Glo™ Reagent provided in the kit, the reaction incubates at room temperature for 40 minutes. Then 10 μL of Kinase Detection Reagent provided in the kit is added to convert ADP to ATP, and the reaction incubates at room temperature for 60 minutes. Finally, luminescence measurement is collected with a plate-reading luminometer, such as Envision.
(§3) The ADP-Glo™ kinase assay is performed in two steps once the reaction is complete. The first step is to deplete any unconsumed ATP in the reaction. The second step is to convert the reaction product ADP to ATP, which will be utilized by the luciferase to generate luminesce and be detected by a luminescence reader, such as Envision.
as §2, with “BRG1,” for “BRG-1,”
On the technique in general: In ADP-Glo the light output rises with the ADP produced.

The next assay concerns the target T2, BRG-1 (Homo sapiens, UniProt P51532).
T2 construct: made in house; host or cells: High Five insect cells
Description: ATPase catalytic activity assay (ADP-Glo), BRG-1. The format is biochemical. To be noted: 30 nM BRG-1, 400 μM ATP; for IC50: 20 nM salmon sperm DNA, read-out: BRG1 IP50 (μM)*; for Emax: read-out: BRG1 Max % Inhibition. As to the method: as §1, §2, §3
as §2, with “BRG1,” for “BRG-1,”

T1 sequence (P51531 whole entry): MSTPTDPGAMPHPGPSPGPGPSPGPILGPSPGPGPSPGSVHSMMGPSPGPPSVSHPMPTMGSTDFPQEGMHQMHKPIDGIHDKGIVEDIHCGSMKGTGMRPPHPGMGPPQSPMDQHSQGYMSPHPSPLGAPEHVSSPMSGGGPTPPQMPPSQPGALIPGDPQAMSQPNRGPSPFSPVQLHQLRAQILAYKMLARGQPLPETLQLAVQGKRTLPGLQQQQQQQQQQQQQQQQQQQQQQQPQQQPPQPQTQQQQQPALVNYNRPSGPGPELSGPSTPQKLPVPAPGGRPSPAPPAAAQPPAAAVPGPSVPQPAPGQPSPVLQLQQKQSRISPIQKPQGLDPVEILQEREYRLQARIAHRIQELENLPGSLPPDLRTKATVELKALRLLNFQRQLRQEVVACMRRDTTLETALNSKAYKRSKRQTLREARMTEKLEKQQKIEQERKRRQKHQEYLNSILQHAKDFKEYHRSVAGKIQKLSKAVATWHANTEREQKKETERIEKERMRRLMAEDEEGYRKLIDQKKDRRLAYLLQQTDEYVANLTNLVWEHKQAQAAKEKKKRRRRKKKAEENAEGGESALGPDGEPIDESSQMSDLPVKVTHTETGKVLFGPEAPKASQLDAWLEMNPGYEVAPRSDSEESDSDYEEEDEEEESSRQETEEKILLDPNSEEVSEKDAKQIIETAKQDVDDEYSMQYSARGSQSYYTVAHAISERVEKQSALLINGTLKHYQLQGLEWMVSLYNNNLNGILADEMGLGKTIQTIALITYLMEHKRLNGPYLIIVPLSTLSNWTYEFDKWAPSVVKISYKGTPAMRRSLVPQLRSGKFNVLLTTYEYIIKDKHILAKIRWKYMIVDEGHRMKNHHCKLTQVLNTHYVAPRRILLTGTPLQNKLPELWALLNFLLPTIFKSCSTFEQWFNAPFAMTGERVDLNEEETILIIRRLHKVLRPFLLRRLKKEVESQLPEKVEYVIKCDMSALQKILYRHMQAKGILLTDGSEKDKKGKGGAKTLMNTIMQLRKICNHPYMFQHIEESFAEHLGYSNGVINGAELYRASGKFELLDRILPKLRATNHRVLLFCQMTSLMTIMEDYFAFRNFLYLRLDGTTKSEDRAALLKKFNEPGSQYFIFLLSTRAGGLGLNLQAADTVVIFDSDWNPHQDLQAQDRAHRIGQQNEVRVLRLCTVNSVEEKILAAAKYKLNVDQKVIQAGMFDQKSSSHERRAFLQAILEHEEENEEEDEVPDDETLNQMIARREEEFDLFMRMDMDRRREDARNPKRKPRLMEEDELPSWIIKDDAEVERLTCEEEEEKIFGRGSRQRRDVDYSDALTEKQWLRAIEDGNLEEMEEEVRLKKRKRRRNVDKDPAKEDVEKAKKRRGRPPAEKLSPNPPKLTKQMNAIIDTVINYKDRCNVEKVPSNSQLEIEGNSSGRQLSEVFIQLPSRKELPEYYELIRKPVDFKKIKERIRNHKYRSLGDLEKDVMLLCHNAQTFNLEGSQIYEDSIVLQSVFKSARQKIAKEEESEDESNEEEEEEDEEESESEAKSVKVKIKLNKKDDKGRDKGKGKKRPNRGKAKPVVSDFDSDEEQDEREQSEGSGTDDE
T2 sequence (P51532 whole entry): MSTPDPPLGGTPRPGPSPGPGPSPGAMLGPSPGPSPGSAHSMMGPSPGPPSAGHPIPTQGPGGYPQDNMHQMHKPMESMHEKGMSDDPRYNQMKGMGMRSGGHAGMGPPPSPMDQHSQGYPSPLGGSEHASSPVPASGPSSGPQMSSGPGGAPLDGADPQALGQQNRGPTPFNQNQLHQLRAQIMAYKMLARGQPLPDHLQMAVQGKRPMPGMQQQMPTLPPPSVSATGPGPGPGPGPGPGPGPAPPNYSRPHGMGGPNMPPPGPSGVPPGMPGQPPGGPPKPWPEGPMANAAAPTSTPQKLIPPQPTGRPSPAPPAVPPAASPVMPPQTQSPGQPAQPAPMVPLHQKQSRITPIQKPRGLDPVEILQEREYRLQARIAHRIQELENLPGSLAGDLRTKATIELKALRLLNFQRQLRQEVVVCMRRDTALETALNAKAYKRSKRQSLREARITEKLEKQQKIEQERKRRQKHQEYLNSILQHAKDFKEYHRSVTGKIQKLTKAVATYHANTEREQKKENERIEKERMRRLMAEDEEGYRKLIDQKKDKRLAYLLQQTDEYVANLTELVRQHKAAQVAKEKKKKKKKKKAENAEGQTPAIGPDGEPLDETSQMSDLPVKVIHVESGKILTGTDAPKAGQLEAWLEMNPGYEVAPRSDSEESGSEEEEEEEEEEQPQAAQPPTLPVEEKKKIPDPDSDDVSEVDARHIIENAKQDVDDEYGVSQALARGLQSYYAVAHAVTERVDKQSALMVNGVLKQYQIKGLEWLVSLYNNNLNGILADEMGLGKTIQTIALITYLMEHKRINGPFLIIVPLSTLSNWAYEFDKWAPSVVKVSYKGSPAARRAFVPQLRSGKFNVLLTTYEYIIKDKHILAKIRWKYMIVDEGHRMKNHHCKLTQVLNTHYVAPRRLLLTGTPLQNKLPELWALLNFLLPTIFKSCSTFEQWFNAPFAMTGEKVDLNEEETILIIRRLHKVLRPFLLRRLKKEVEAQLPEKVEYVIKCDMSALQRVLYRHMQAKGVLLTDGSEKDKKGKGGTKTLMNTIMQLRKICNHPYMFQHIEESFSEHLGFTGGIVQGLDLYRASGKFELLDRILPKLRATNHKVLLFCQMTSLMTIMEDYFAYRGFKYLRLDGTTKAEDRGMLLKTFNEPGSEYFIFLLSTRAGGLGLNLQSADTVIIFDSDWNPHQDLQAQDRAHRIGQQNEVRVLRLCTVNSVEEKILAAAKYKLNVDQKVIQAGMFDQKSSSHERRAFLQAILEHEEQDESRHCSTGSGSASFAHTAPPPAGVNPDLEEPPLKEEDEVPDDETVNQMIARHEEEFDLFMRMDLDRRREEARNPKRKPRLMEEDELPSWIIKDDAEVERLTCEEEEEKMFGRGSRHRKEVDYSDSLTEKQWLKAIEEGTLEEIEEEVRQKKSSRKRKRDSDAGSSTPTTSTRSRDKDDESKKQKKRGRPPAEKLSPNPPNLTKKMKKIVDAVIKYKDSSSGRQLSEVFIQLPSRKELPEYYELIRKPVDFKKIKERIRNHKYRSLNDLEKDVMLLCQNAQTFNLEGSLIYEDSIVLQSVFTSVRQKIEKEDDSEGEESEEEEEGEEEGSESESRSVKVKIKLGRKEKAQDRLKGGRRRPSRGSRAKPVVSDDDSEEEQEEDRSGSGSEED

As to `C[C@@H]1CN(c2cccc(-c3csc(NC(=O)CNC(=O)c4cnn(C(C)(C)C)c4Cl)n3)c2)C[C@H](C)O1` [Compound 43, 1-(tert-butyl)-5-chloro-N-(2-((4-(3-((2R,6S)-2,6-dimethylmorpholino)phenyl)thiazol-2-yl)amino)-2-oxoethyl)-1H-pyrazole-4-carboxamide], the IC50 at BRM is less than 0.1 µM; at BRG-1 it was 0.1 to 1 µM.

With `Cc1cc(-c2cccc(-c3csc(NC(=O)CNC(=O)c4cn(S(=O)(=O)C(C)C)c5c4CCCC5)n3)c2)cc(C)n1` [Compound 20, N-(2-((4-(3-(2,6-dimethylpyridin-4-yl)phenyl)thiazol-2-yl)amino)-2-oxoethyl)-1-(isopropylsulfonyl)-4,5,6,7-tetrahydro-1H-indole-3-carboxamide], on BRM, the “BRM Max % Inhibition” value is more than 95% and the IC50 fell in the range of 0.1 to 1 µM. At BRG-1, the IC50 was more than 5 µM and the Emax is less than 30%.

In the case of `Cc1nccc(-c2cccc(-c3csc(NC(=O)CNC(=O)c4cn(S(C)(=O)=O)c5c4CCCC5)n3)n2)n1` [Compound 18, N-(2-((4-(6-(2-methylpyrimidin-4-yl)pyridin-2-yl)thiazol-2-yl)amino)-2-oxoethyl)-1-(methylsulfonyl)-4,5,6,7-tetrahydro-1H-indole-3-carboxamide], on BRM, the “BRM Max % Inhibition” value is more than 70% and the IC50 fell in the range of 0.1 to 1 µM. Further, on BRG-1, the IC50 was more than 5 µM and the Emax is less than 30%.

Turning to `Cc1nccc(-c2cccc(-c3csc(NC(=O)CNC(=O)c4cc(Cl)n(S(=O)(=O)C(C)C)c4)n3)n2)n1` [Compound 24, 5-chloro-1-(isopropylsulfonyl)-N-(2-((4-(6-(2-methylpyrimidin-4-yl)pyridin-2-yl)thiazol-2-yl)amino)-2-oxoethyl)-1H-pyrrole-3-carboxamide], on BRM, the “BRM Max % Inhibition” value is more than 60% and the IC50 was in the range of 0.1 to 1 µM. Besides, at BRG-1, the IC50 is more than 5 µM and the Emax was less than 30%.

On to `Cc1cc(-c2cccc(-c3csc(NC(=O)CNC(=O)c4cn(S(=O)(=O)C(C)C)c(C)c4C)n3)c2)ccn1` [Compound 13, 1-(isopropylsulfonyl)-4,5-dimethyl-N-(2-((4-(3-(2-methylpyridin-4-yl)phenyl)thiazol-2-yl)amino)-2-oxoethyl)-1H-pyrrole-3-carboxamide], for which, at BRM, the “BRM Max % Inhibition” value was more than 95% and the IC50 fell in the range of 0.1 to 1 µM. Besides, at BRG-1, the IC50 lay in the range of 1 to 5 µM and the Emax was more than 80%.

As for `CS(=O)(=O)n1cc(C(=O)NCC(=O)Nc2nc(-c3cccc(-c4ccncc4)c3)cs2)c2ncccc21` [Compound 3, 1-(methylsulfonyl)-N-(2-oxo-2-((4-(3-(pyridin-4-yl)phenyl)thiazol-2-yl)amino)ethyl)-1H-pyrrolo[3,2-b]pyridine-3-carboxamide], at BRM, the “BRM Max % Inhibition” value is given as more than 40% and the IC50 was more than 5 µM. On BRG-1, the IC50 is more than 5 µM and the Emax is more than 40%.

As to `C[C@@H]1CN(c2cccc(-c3csc(NC(=O)CNC(=O)c4cn(S(C)(=O)=O)c5c4CCCC5)n3)c2)C[C@H](C)O1` [Compound 28, N-(2-((4-(3-((cis)-2,6-dimethylmorpholino)phenyl)thiazol-2-yl)amino)-2-oxoethyl)-1-(methylsulfonyl)-4,5,6,7-tetrahydro-1H-indole-3-carboxamide], at BRM, the “BRM Max % Inhibition” value is more than 90% and the IC50 is 0.1 to 1 µM. Further, at BRG-1, the IC50 is 1 to 5 µM and the Emax was more than 40%.

Regarding `CC(C)S(=O)(=O)n1cc(C(=O)NCC(=O)Nc2nc(-c3cc(F)cc(N4C[C@@H](C)O[C@@H](C)C4)c3)cs2)c2ccccc21` [Compound 21, N-(2-((4-(3-((cis)-2,6-dimethylmorpholino)-5-fluorophenyl)thiazol-2-yl)amino)-2-oxoethyl)-1-(isopropylsulfonyl)-1H-indole-3-carboxamide], at BRM, the “BRM Max % Inhibition” value is more than 90% and the IC50 lay in the range of 0.1 to 1 µM. On BRG-1, the IC50 was more than 5 µM and the Emax was less than 30%.

In the case of `CS(=O)(=O)n1cc(C(=O)NCC(=O)Nc2nc(-c3cccc(N4CCC(O)CC4)c3)cs2)c2ccccc21` [Compound 39, N-(2-((4-(3-(4-hydroxypiperidin-1-yl)phenyl)thiazol-2-yl)amino)-2-oxoethyl)-1-(methylsulfonyl)-1H-indole-3-carboxamide], at BRM, the “BRM Max % Inhibition” value is reported as more than 80% and the IC50 lay within 0.1 to 1 µM. In addition, on BRG-1, the IC50 was 1 to 5 µM and the Emax was less than 30%.

With `Cc1cc(-c2cccc(-c3csc(NC(=O)CNC(=O)c4cc(C)n(S(=O)(=O)C(C)C)c4)n3)c2)cc(C)n1` [Compound 7, N-(2-((4-(3-(2,6-dimethylpyridin-4-yl)phenyl)thiazol-2-yl)amino)-2-oxoethyl)-1-(isopropylsulfonyl)-5-methyl-1H-pyrrole-3-carboxamide], on BRM, the “BRM Max % Inhibition” value is on record as more than 95% and the IC50 was less than 0.1 µM. Besides, at BRG-1, the IC50 was 0.1 to 1 µM and the Emax is more than 95%.

Turning to `Cc1cn(S(C)(=O)=O)cc1C(=O)NCC(=O)Nc1nc(-c2cccc(-c3ccncc3)c2)cs1` [Compound 9, 4-methyl-1-(methylsulfonyl)-N-(2-oxo-2-((4-(3-(pyridin-4-yl)phenyl)thiazol-2-yl)amino)ethyl)-1H-pyrrole-3-carboxamide], on BRM, the “BRM Max % Inhibition” value was more than 80% and the IC50 is less than 0.1 µM. For the same compound, at BRG-1, the IC50 is less than 0.1 µM and the Emax is more than 60%.

On to `Cc1cc(-c2cccc(-c3csc(NC(=O)CNC(=O)c4cc(CO)n(S(=O)(=O)C(C)C)c4)n3)c2)cc(C)n1` [Compound 25, N-(2-((4-(3-(2,6-dimethylpyridin-4-yl)phenyl)thiazol-2-yl)amino)-2-oxoethyl)-5-(hydroxymethyl)-1-(isopropylsulfonyl)-1H-pyrrole-3-carboxamide], for which, at BRM, the “BRM Max % Inhibition” value is listed as more than 95% and the IC50 is less than 0.1 µM. Further, at BRG-1, the IC50 lay in the range of 0.1 to 1 µM and the Emax is more than 80%.

For `Cc1cc(-c2cccc(-c3csc(NC(=O)CNC(=O)c4cc(C5CC5)n(S(C)(=O)=O)c4)n3)c2)cc(C)n1` [Compound 19, 5-cyclopropyl-N-(2-((4-(3-(2,6-dimethylpyridin-4-yl)phenyl)thiazol-2-yl)amino)-2-oxoethyl)-1-(methylsulfonyl)-1H-pyrrole-3-carboxamide], on BRM, the “BRM Max % Inhibition” value is reported as more than 95% and the IC50 lay in the range of 0.1 to 1 µM. In addition, on BRG-1, the IC50 lay within 0.1 to 1 µM and the Emax was more than 80%.

Consider `CS(=O)(=O)n1cc(C(=O)NCC(=O)Nc2nc(-c3cccc(-c4ccncc4)c3)cs2)c2c1CCCC2` [Compound 5, 1-(methylsulfonyl)-N-(2-oxo-2-((4-(3-(pyridin-4-yl)phenyl)thiazol-2-yl)amino)ethyl)-4,5,6,7-tetrahydro-1 H-indole-3-carboxamide], for which, on BRM, the “BRM Max % Inhibition” value was more than 60% and the IC50 is less than 0.1 µM. In addition, at BRG-1, the IC50 was more than 5 µM and the Emax is less than 30%.

Take `Cc1nccc(-c2cccc(-c3csc(NC(=O)CNC(=O)c4cc(C)n(S(=O)(=O)C(C)C)c4)n3)c2)n1` [Compound 16]: at BRM, the “BRM Max % Inhibition” value is more than 95% and the IC50 was less than 0.1 µM. Further, at BRG-1, the IC50 was less than 0.1 µM and the Emax is more than 95%.

In the case of `CC(C)S(=O)(=O)n1cc(C(=O)NCC(=O)Nc2nc(-c3cccc(N4C[C@@H](C)O[C@@H](C)C4)c3)cs2)cc1Cl` [Compound 36], on BRM, the “BRM Max % Inhibition” value is reported as more than 90% and the IC50 fell in the range of 0.1 to 1 µM. Also, on BRG-1, the IC50 was in the range of 1 to 5 µM and the Emax is more than 60%.

On to `Cc1cc(-c2cccc(-c3csc(NC(=O)CNC(=O)c4cn(S(C)(=O)=O)c5ccccc45)n3)c2)cc(C)n1` [Compound 33, N-(2-((4-(3-(2,6-dimethylpyridin-4-yl)phenyl)thiazol-2-yl)amino)-2-oxoethyl)-1-(methylsulfonyl)-1H-indole-3-carboxamide], for which, on BRM, the “BRM Max % Inhibition” value is recorded as more than 95% and the IC50 was less than 0.1 µM. Besides, at BRG-1, the IC50 lay within 0.1 to 1 µM and the Emax was more than 90%.
